Consider 2 compounds from patent publication US20210000852A1, “POLYDATIN PACLITAXEL COMPOSITION, AND APPLICATION IN PREPARING MEDICAMENT FOR PREVENTING AND TREATING GASTRIC CANCER” (Tianjin Medical University Cancer Institute and Hospital, priority 2018, published 2021).

The test system of assay [1] is human gastric cancer cells AGS. Kind of assay: CCK-8 growth and proliferation activity, AGS cells. To be noted: for inhibition of the activity of gastric cancer cells (single agent): 24 h, concentration gradients; for IC50 / IC50 of AGS cells: treated for 24 h. It counts as cell-based. From the text:
(§1) Human gastric cancer cell line SGC-7901 was purchased from Shanghai Genechem Co., Ltd. and human gastric cancer cell line AGS was purchased from Cell Bank of American Type Culture Collection (ATCC) (ATCC No. CRL-1739).
(§2) In FIG. 5, the mass ration of composition is as follows: (a) mPD: mPaclitaxel=22.65:1 (Example 3); (b) mPD: mPaclitaxel=45.29:1; (c) mPD: mPaclitaxel=90.59:1; (d) mPD: mPaclitaxel=226.48:1. In FIG. 6, the mass ration of composition is as follows: (a) mPD: mPaclitaxel=8.44:1; (b) mPD: mPaclitaxel=16.88:1; (c) mPD: mPaclitaxel=33.77:1 (Example 4).
(§3) In FIG. 7, the mass ration of composition is as follows: (a) mPD: mPactitaxel=45.29:1; (b) mPD: mPaclitaxel=90.59:1; (c) mPD: mPaclitaxel=226.48:1. In FIG. 8, the mass ration of composition is as follows: (a) mPD: mPaclitaxel=16.88:1; (b) mPD: mPaclitaxel=33.77:1.

Assay [2] has as its system human gastric cancer cells SGC-7901. As to the kind of experiment: CCK-8 growth and proliferation activity, SGC-7901 cells. The assay is classed as cell-based. Conditions: for inhibition of the activity of gastric cancer cells (single agent): SGC-7901, 24 h, concentration gradients; for IC50 / IC50 of SGC-7901 cells: SGC-7901, treated for 24 h.
Source text: as §1, §2, §3

A word on the IC50: it is the concentration at which inhibition is half-maximal. Take `CC(=O)O[C@H]1C(=O)[C@@]2(C)[C@H]([C@H](OC(=O)c3ccccc3)[C@]3(O)C[C@H](OC(=O)[C@H](O)[C@@H](NC(=O)c4ccccc4)c4ccccc4)C(C)=C1C3(C)C)[C@]1(OC(C)=O)CO[C@@H]1C[C@@H]2O` [Paclitaxel]: in assay [1], the “inhibition of the activity of gastric cancer cells (single agent)” value (“inhibition” below) is listed as “inhibit the activity of both gastric cancer cells in a concentration-dependent manner”, the IC50 stood at 3.34 µM and the “IC50 of AGS cells” value was 6.3 µg/mL. In addition, in assay [2], the “inhibition” value was “inhibit the activity of both gastric cancer cells in a concentration-dependent manner”, half-maximal inhibition (IC50) was put at 5.27 µM and the “IC50 of SGC-7901 cells” value amounted to 5.5 µg/mL.

As for Polydatin, in assay [1], the “inhibition” value was “inhibit the activity of both gastric cancer cells in a concentration-dependent manner”, 56.2 µM corresponded to half-maximal inhibition (IC50) and the “IC50 of AGS cells” value was 53.5 µg/mL. Moreover, in assay [2], the “inhibition” value is “inhibit the activity of both gastric cancer cells in a concentration-dependent manner”, it took 139 µM to reach half-maximal inhibition (IC50) and the “IC50 of SGC-7901 cells” value is 124.0 µg/mL.
